Article PMC10672842, “Anti-Trypanosoma cruzi Activity, Mutagenicity, Hepatocytotoxicity and Nitroreductase Enzyme Evaluation of 3-Nitrotriazole, 2-Nitroimidazole and Triazole Derivatives” (Molecules, 2023)
Where two headings read alike, the source gives them in different places.

Key:
[1] = In vitro cytotoxicity of L929 cells (AlamarBlue); format: cell-based, mice; conditions: mouse, four days
Method: For this bioassay, 4000 mammalian cells in 200 µL of RPMI-1640 medium (pH 7.2–7.4) (Gibco BRL) plus 10% fetal bovine serum and 2 mM glutamine were added to each well of a 96-well microtiter plate, which was incubated for three days at 37 °C. […] After this period, 20 µL of AlamarBlue^TM was added to each well, and the plate was incubated for another 4–6 h. Then, the absorbance was measured at 570 nm. Controls with cells not treated and treated with benznidazole were performed in parallel, and triplicates were performed on the same plate. The results are expressed as the percent difference in the reduction between treated (CT) and untreated cells (UT) using the following equation:(1) 117.216Abs570 TC−80.586(Abs600 TC)/117.216Abs570 UT−80.586(Abs600 UT) × 100

[2] = tested on: S. typhimurium TA100; conditions: for Mutagenicity in the Ames test (verdict): TA100, absence or presence of metabolic activation; for Mutagen classification according to Claxton et al.: TA100, −S9 and +S9
Method: The compounds were tested in a reverse mutation assay preincubation protocol in the absence and presence of metabolic activation following standard protocols previously proposed by Maron and Ames. The histidine-dependent (his^−) strains TA98 and TA100 of Salmonella typhimurium were inoculated in 10 mL of Oxoid nutrient broth No. 2 containing 25 µg/mL ampicillin and incubated overnight (15–18 h) at 37 ± 1 °C on an orbital shaker (CT-712, Cientec, Belo Horizonte, MG, Brazil) at 150 rpm, obtaining a concentration of 1–2 × 10^9 cells/mL, confirmed by titration in nutrient agar plates. Briefly, 100 µL of stationary growth cultures of each strain were preincubated for 20 min on an orbital shaker (150 rpm) at 37 ± 1 °C, with 500 µL of 0.2 M phosphate buffer pH 7.4, or 500 µL of S9 mix 4% (Molecular Toxicology, Baltimore, MD, USA), and 100 µL of compound dilutions (0–5000 µM) or controls. DMSO 1% was used as a negative control. […] After incubation, 2 mL of top agar (0.7% agar, 0.5% NaCl, 0.05 mM L-histidine and D-biotin) at 45 ± 3 °C was added and gently mixed. The final mixture was poured on glucose minimal agar plates (1.5% agar, 10 g/L MgSO4·7H2O; 100 g/L of C6H8O7·H2O; 500 g/L K2HPO4; 175 g/L Na(NH4)HPO4·4H2O, 2% glucose) and incubated for 72 h at 37 ± 1 °C. The results were expressed as the mean of revertant colonies (His^+) per plate, standard deviation (SD) and mutagenicity induction fold (IF), calculated as the ratio between the number of colonies in the test group and the number of colonies in the negative control group. Mutagenic potency was calculated as the slope of the linear portion of the concentration–response function and expressed as revertants/µM. All assays were performed in triplicate and repeated at least two times. Statistical analyses were carried out in GraphPad Prism software (version 5.00, GraphPad Software, Boston, MA, USA).

[3] = in vitro; format: cell-based; conditions: human
Method: (§1) The Lactate Desidrogenase (LDH) Cytotoxicity Detection Kit^PLUS and the Cell Proliferation Reagent WST-1 assays were performed according to the manufacturer’s protocols. The human hepatocellular carcinoma cell line HepG2 was cultured in T25/175 cm^2 flasks with Dulbecco’s modified Eagle’s medium (DMEM, Gibco BRL) supplemented with 10% fetal bovine serum, 3.7 g/L sodium bicarbonate and 100 µg/mL penicillin–streptomycin under standard conditions (37 ± 1 °C, 95% relative humidity and 5% CO2). Cells were split using trypsin-EDTA (0.05%) with phenol red solution (Gibco BRL) and seeded in a 96-well flat-bottomed plate at a density of 1 × 10^4 cells/well. After overnight incubation, the cells were washed with 1X PBS, and the medium was replaced with different compound dilutions (0–5000 µM) in fresh medium (100 µL) followed by 24 h of incubation. DMSO 1% was used as the negative control, and Triton X-100 4% was used as the positive control. For the LDH assay, after treatment, 50 µL of supernatant from each well was transferred to a 96-well flat-bottomed plate, and 50 µL of freshly prepared reaction mixture was added to each well. After 10 min of incubation in the dark at room temperature, 25 µL of stop solution was added to each well, and the absorbance was measured at 492 nm on a microplate reader (Polaris, Celer, MG, Brazil). For the WST-1 assay, after exposure, the supernatant was replaced by 100 µL of WST-1 2% in fresh medium and incubated for 3 h in the dark under standard conditions. The absorbance was measured at 440 nm. […] For cytotoxicity assays, significant differences between the groups were analyzed by one-way ANOVA and Tukey’s post hoc tests (p < 0.01).

[4] = tested on: S. typhimurium TA1535; conditions: for Mutagenicity in the Ames test (verdict): TA1535, absence or presence of metabolic activation
[5] = in vitro; format: cell-based; conditions: human; remark: listed apart in the source
Method: as §1

O=C(Cn1ccnc1[N+](=O)[O-])NCc1ccccc1 [BZN, benznidazole, reference compound]
CC50 at 4 days [1]: 2110 ± 270 µM | Mutagenic potency (slope of the linear portion of the concentration–response function) ([2]; TA100, +S9): 1382.2 revertants/µM | IF (induction factor) ([2]; TA100, +S9, 0.5 µM): 0.9 | revertant His+ colonies, mean ± SD ([2]; TA100, +S9, 0.5 µM): 95 ± 3 | IF (induction factor) ([2]; TA100, +S9, 5 µM): 1.0 | revertant His+ colonies, mean ± SD ([2]; TA100, +S9, 5 µM): 110 ± 8 | IF (induction factor) ([2]; TA100, +S9, 50 µM): 2.5 | revertant His+ colonies, mean ± SD ([2]; TA100, +S9, 50 µM): 269 ± 13 | IF (induction factor) ([2]; TA100, +S9, 500 µM): 8.6 | revertant His+ colonies, mean ± SD ([2]; TA100, +S9, 500 µM): 907 ± 10 | Mutagenicity in the Ames test (verdict) [2]: mutagenic | Mutagenic potency (slope of the linear portion of the concentration–response function) ([2]; TA100, −S9): 1789.9 revertants/µM | IF (induction factor) ([2]; TA100, −S9, 0.5 µM): 1.0 | revertant His+ colonies, mean ± SD ([2]; TA100, −S9, 0.5 µM): 130 ± 6 | IF (induction factor) ([2]; TA100, −S9, 5 µM): 1.6 | revertant His+ colonies, mean ± SD ([2]; TA100, −S9, 5 µM): 217 ± 13 | IF (induction factor) ([2]; TA100, −S9, 50 µM): 6.2 | revertant His+ colonies, mean ± SD ([2]; TA100, −S9, 50 µM): 852 ± 40 | IF (induction factor) ([2]; TA100, −S9, 500 µM): 28.2 | revertant His+ colonies, mean ± SD ([2]; TA100, −S9, 500 µM): 3848 ± 11 | IF (induction factor) ([2]; TA100, −S9, 5000 µM): 53.0 | revertant His+ colonies, mean ± SD ([2]; TA100, −S9, 5000 µM): 7264 ± 62 | Mutagen classification according to Claxton et al. [2]: extremely high mutagen | CC50 at 24 h [3]: > 500 µM | CC50 at 48 h [3]: > 500 µM | CC50 at 72 h [3]: > 500 µM | IF (induction factor) ([4]; TA1535, +S9, 0.5 µM): 1.3 | revertant His+ colonies, mean ± SD ([4]; TA1535, +S9, 0.5 µM): 13 ± 1 | IF (induction factor) ([4]; TA1535, +S9, 5 µM): 1.6 | revertant His+ colonies, mean ± SD ([4]; TA1535, +S9, 5 µM): 17 ± 3 | IF (induction factor) ([4]; TA1535, +S9, 50 µM): 2.1 | revertant His+ colonies, mean ± SD ([4]; TA1535, +S9, 50 µM): 22 ± 3 | IF (induction factor) ([4]; TA1535, +S9, 500 µM): 2.9 | revertant His+ colonies, mean ± SD ([4]; TA1535, +S9, 500 µM): 31 ± 2 | IF (induction factor) ([4]; TA1535, +S9, 5000 µM): 3.0 | revertant His+ colonies, mean ± SD ([4]; TA1535, +S9, 5000 µM): 32 ± 4 | Mutagenicity in the Ames test (verdict) [4]: mutagenic | IF (induction factor) ([4]; TA1535, −S9, 0.5 µM): 1.5 | revertant His+ colonies, mean ± SD ([4]; TA1535, −S9, 0.5 µM): 11 ± 2 | IF (induction factor) ([4]; TA1535, −S9, 5 µM): 1.5 | revertant His+ colonies, mean ± SD ([4]; TA1535, −S9, 5 µM): 11 ± 5 | IF (induction factor) ([4]; TA1535, −S9, 50 µM): 1.5 | revertant His+ colonies, mean ± SD ([4]; TA1535, −S9, 50 µM): 11 ± 1 | IF (induction factor) ([4]; TA1535, −S9, 500 µM): 2.5 | revertant His+ colonies, mean ± SD ([4]; TA1535, −S9, 500 µM): 18 ± 4 | IF (induction factor) ([4]; TA1535, −S9, 5000 µM): 4.9 | revertant His+ colonies, mean ± SD ([4]; TA1535, −S9, 5000 µM): 36 ± 5 | CC50 at 24 h [5]: > 500 µM | CC50 at 48 h [5]: > 500 µM | CC50 at 72 h [5]: > 500 µM

O=[N+]([O-])c1nccn1CC(O)c1ccc(F)cc1F (centres unmarked) [Compound 9, 1-(2,4-Difluorophenyl)-2-(2-nitro-1H-imidazol-1-yl)ethanol]
CC50 at 4 days [1]: > 400 µM | Mutagenic potency (slope of the linear portion of the concentration–response function) ([2]; TA100, +S9): 292.1 revertants/µM | IF (induction factor) ([2]; TA100, +S9, 0.5 µM): 1.5 | revertant His+ colonies, mean ± SD ([2]; TA100, +S9, 0.5 µM): 159 ± 7 | IF (induction factor) ([2]; TA100, +S9, 5 µM): 2.1 | revertant His+ colonies, mean ± SD ([2]; TA100, +S9, 5 µM): 218 ± 14 | IF (induction factor) ([2]; TA100, +S9, 50 µM): 2.2 | revertant His+ colonies, mean ± SD ([2]; TA100, +S9, 50 µM): 233 ± 48 | IF (induction factor) ([2]; TA100, +S9, 500 µM): 9.7 | revertant His+ colonies, mean ± SD ([2]; TA100, +S9, 500 µM): 1025 ± 16 | IF (induction factor) ([2]; TA100, +S9, 5000 µM): 11.5 | revertant His+ colonies, mean ± SD ([2]; TA100, +S9, 5000 µM): 1216 ± 113 | Mutagenicity in the Ames test (verdict) [2]: mutagenic | Mutagenic potency (slope of the linear portion of the concentration–response function) ([2]; TA100, −S9): 250.3 revertants/µM | IF (induction factor) ([2]; TA100, −S9, 0.5 µM): 1.0 | revertant His+ colonies, mean ± SD ([2]; TA100, −S9, 0.5 µM): 73 ± 5 | IF (induction factor) ([2]; TA100, −S9, 5 µM): 1.2 | revertant His+ colonies, mean ± SD ([2]; TA100, −S9, 5 µM): 88 ± 7 | IF (induction factor) ([2]; TA100, −S9, 50 µM): 2.3 | revertant His+ colonies, mean ± SD ([2]; TA100, −S9, 50 µM): 164 ± 16 | IF (induction factor) ([2]; TA100, −S9, 500 µM): 4.9 | revertant His+ colonies, mean ± SD ([2]; TA100, −S9, 500 µM): 347 ± 24 | IF (induction factor) ([2]; TA100, −S9, 5000 µM): 16.7 | revertant His+ colonies, mean ± SD ([2]; TA100, −S9, 5000 µM): 1195 ± 160 | Mutagen classification according to Claxton et al. [2]: highly inductive mutagen | CC50 at 24 h [3]: > 500 µM | CC50 at 48 h [3]: > 500 µM | CC50 at 72 h [3]: > 500 µM | IF (induction factor) ([4]; TA1535, +S9, 0.5 µM): 1.3 | revertant His+ colonies, mean ± SD ([4]; TA1535, +S9, 0.5 µM): 14 ± 2 | IF (induction factor) ([4]; TA1535, +S9, 5 µM): 2.1 | revertant His+ colonies, mean ± SD ([4]; TA1535, +S9, 5 µM): 23 ± 1 | IF (induction factor) ([4]; TA1535, +S9, 50 µM): 2.2 | revertant His+ colonies, mean ± SD ([4]; TA1535, +S9, 50 µM): 24 ± 1 | revertant His+ colonies, mean ± SD ([4]; TA1535, +S9, 500 µM): Cytotoxic | Mutagenicity in the Ames test (verdict) [4]: mutagenic | IF (induction factor) ([4]; TA1535, −S9, 0.5 µM): 1.8 | revertant His+ colonies, mean ± SD ([4]; TA1535, −S9, 0.5 µM): 14 ± 1 | IF (induction factor) ([4]; TA1535, −S9, 5 µM): 1.8 | revertant His+ colonies, mean ± SD ([4]; TA1535, −S9, 5 µM): 14 ± 4 | IF (induction factor) ([4]; TA1535, −S9, 50 µM): 2.8 | revertant His+ colonies, mean ± SD ([4]; TA1535, −S9, 50 µM): 22 ± 1 | IF (induction factor) ([4]; TA1535, −S9, 500 µM): 2.0 | revertant His+ colonies, mean ± SD ([4]; TA1535, −S9, 500 µM): 16 ± 3 | revertant His+ colonies, mean ± SD ([4]; TA1535, −S9, 5000 µM): Cytotoxic | CC50 at 24 h [5]: > 500 µM | CC50 at 48 h [5]: > 500 µM | CC50 at 72 h [5]: > 500 µM
